Experimental data taken from patent US20180201647A1, “Peptoid” (The University of Durham, priority 2015, published 2018).
Where two headings read alike, the source gives them in different places. Where a SMILES comes first, the peptide text is derived from it. [ ]: non-standard residue; d: D form. Nspe = C[C@H](NCC(=O)O)c1ccccc1; NhArg = N=C(N)NCCCCNCC(=O)O; Nlys = NCCCCNCC(=O)O

Key:
Assay type in all cases: cell-based
[1] = tested on: E. coli (ATCC 29522) biofilm; assay: Single species biofilm treatment, crystal violet assay; conditions: 100 μM peptoid, 24 hours, FIG. 17C
Method: (§1) C. albicans (NCTC 3179) was subcultured aerobically on Sabouraud agar plates and propagated in yeast peptone dextrose broth. E. coli (ATCC 29522) and S. aureus (NCTC 6571) were grown on blood agar plates and propagated in brain heart infusion (BHI) broth.
(§2) Overnight cultures of C. albicans were washed and resuspended in a modified RPMI-1640 (Sigma-Aldrich, St Louis, USA) medium to yield an inoculum of 1.0×10^6 cells/ml. Overnight cultures of S. aureus or E. coli were washed and resuspended in brain heart infusion broth (Oxoid, Basingstoke, UK) to yield an inoculum of 5.0×10^6 cells/ml. A total volume of 100 μl of each inoculum was added to microtitre plate wells (Thermo Fisher Scientific, Roskilde, Denmark). An initial biofilm was allowed to form for 4 hours. Wells were washed three times with 200 μl PBS to facilitate removal of planktonic cells and the biofilms were then treated with 100 μM of peptoids 1-4 in the appropriate broth. Plates were incubated for a further 24 hours to allow biofilm maturation. After removal of planktonic cells by washing, biofilms were quantified by the crystal violet assay or by PMA-qPCR.
(§3) Biofilm quantification by crystal violet assay Washed biofilms were fixed with 100 μl methanol for 10 minutes. Following removal of methanol, the wells were air dried and stained with crystal violet solution (Clin-Tech Ltd, Guildford, UK) for 20 minutes at room temperature. Excess stain was removed by washing, the plate was then air dried and bound crystal violet was re-solubilised in 16 μl 33% acetic acid prior to reading at 570 nm in a microtitre plate reader (Tecan GENios, Ziirich, Switzerland).

[2] = tested on: Leishmania mexicana (M379)
Method: Leishmania mexicana (M379) promastigote parasites were maintained at 26° C. in Schneider's Insect medium (Sigma-Aldrich) supplemented with heat-inactivated foetal bovine sera (FBS, 15%; Biosera Ltd). Cells were counted using a Neubauer Improved Haemocytometer. Promastigotes were transformed into axenic amastigotes by a pH and temperature shift as previously described. A culture of recently transformed (three days) promastigotes in the late log phase was transferred into Schneider's Insect medium supplemented with 20% heat-inactivated FBS (pH 5.5) at 5×10^5 parasites/mL. After 6 days, the parasites were in the metacyclic stage and used for transformation to amastigote-like forms by transfer in the same medium at 32° C. at 5×10^5 parasites/mL. After additional 5-7 days, the parasites should be in the amastigote stage and be ready for cytotoxicity studies and infections.
Cytotoxicity analyses were performed in 96-well plates (Costar, Fisher Scientific) using Alamar Blue (Invitrogen) for cell viability detection as previously described.
Promastigote and amastigote L. mexicana were pre-incubated with the compounds in triplicate (5 mM stock solutions in DMSO; Amphotericin B was used as a positive control; untreated parasites with DMSO as a negative control) in 50 μl of the corresponding media at 4×106 mL-1 for 1 hour. Afterwards, 40 μl were removed from each well before the addition of 90 μl of the corresponding media, followed by incubation for 24 hours at 4×105 mL-1. Then, 10 μl Alamar Blue solution (Invitrogen) was added to each well for an incubation of 4 hours prior to assessing cell viability using a fluorescent plate reader (Biotek; Ex 560 nm/Em 600 nm). To investigate the effects of serum on the efficacy of the peptoids, the assay described above was modified using serum-free medium for the pre-incubation time. For these assays, the parasites were washed three times in serum-free medium before adding them to the compound solutions. All of the experiments described above were carried out on a minimum of two separate occasions to ensure a robust data set was collected.

[3] = tested on: Staphylococcus aureus NCTC 6571
Method: (§4) Species used in MIC assays included gram-negative Escherichia coli K12 W3110, Pseudomonas aeruginosa laboratory strain PAO2 and Serratia marcescens laboratory strain and gram-positive Staphylococcus aureus NCTC 6571 and Micrococcus luteus laboratory strain.
(§5) Bacterial cultures were prepared by streaking the bacterial strains on to agar plates with an inoculation loop and incubating overnight at 37° C. A single colony was then selected and placed in 5 mL of Iso-Sensitest broth using an inoculation loop and incubated at 37° C. with shaking overnight.
(§6) MIC values were attained according to the protocol described by J. M. Andrews et al. [J. M. Andrews, J. Antimicrob. Chemother., 2001, 48, 5-16] and were conducted in 96-well microtitre plates in triplicate. 10-50 μL of each overnight culture was inoculated into 1.2 mL of Iso-Sensitest broth and grown at 37° C. with shaking. […] The inoculum was diluted ten-fold with Iso-Sensitest broth before use (to ˜10^3 cfu/spot). Peptide solutions were initially dissolved in DMSO (5 mg mL^−1) and then diluted further with Iso-Sensitest broth to achieve a concentration range of 4 mgL^−1 to 512 mgL^−1 using 2-fold serial dilutions. Samples were vortexed between dilutions where necessary to aid dissolution. 50 μL of inoculum and 50 μL of peptide solution were added to each test well to achieve a final concentration range of 2 mgL^−1 to 256 mgL^−1. Separate dilutions of ampicillin and DMSO were made up in a similar manner to act as a positive antibacterial control and a +DMSO control, respectively. 50 μL of inoculum and 50 μL of Iso-Sensitest broth were used as a positive control and 100 μL of inoculum was used as a negative control. Positive and negatives controls were conducted multiple times in parallel per plate. […] Quantitative data were attained as A650nm values using a BioTek® Synergy™ H4 Hybrid Multi-Mode Microplate Reader.

[4] = tested on: Pseudomonas aeruginosa laboratory strain PAO2
Method: as §4, §5, §6

[5] = tested on: Serratia marcescens laboratory strain; conditions: 16 h
Method: as §4, §5, §6

[6] = tested on: Escherichia coli K12 W3110
Method: as §4, §5, §6

[7] = tested on: S. aureus (NCTC 6571) biofilm; assay: Single species biofilm treatment, crystal violet assay; conditions: 100 μM peptoid, 24 hours, FIG. 17B
Method: as §1, §2, §3

[8] = second figure of cell, 37° C., 16 h, Iso-Sensitest broth
[9] = second figure of cell, 37° C., Iso-Sensitest broth

Row | Structure (SMILES) | activity against the E. coli biofilm [1] | IC50 ([2]; parasite stage not given, read-out: IC50 L. mexicana) [µM] | active against L. mexicana ([2]; statement in words) | MIC S. aureus ([3]; NCTC 6571, 16 h) [µM] | MIC S. aureus [3, 8] [mgL^−1] | MIC P. aeruginosa ([4]; laboratory strain PAO2, 16 h) [µM] | MIC P. aeruginosa [4, 8] [mgL^−1] | MIC S. marcescens ([5]; laboratory strain) [µM] | MIC S. marcescens [5, 9] [mgL^−1] | MIC E. coli ([6]; K12, 16 h) [µM] | MIC E. coli [6, 8] [mgL^−1] | activity against the S. aureus biofilm [7]
1 | C[C@@H](c1ccccc1)N(CC(N)=O)C(=O)CN(C(=O)CN(CCCCN)C(=O)CN(C(=O)CN(C(=O)CN(CCCCN)C(=O)CN(C(=O)CN(C(=O)CN(CCCCNC(=N)N)C(=O)CN(C(=O)CN(C(=O)CNCCCCNC(=N)N)[C@@H](C)c1ccccc1)[C@@H](C)c1ccccc1)[C@@H](C)c1ccccc1)[C@@H](C)c1ccccc1)[C@@H](C)c1ccccc1)[C@@H](C)c1ccccc1)[C@@H](C)c1ccccc1 [Peptoid 2, (NhArg-Nspe-Nspe)2(NLys-Nspe-Nspe)2] (H-[NhArg][Nspe][Nspe][NhArg][Nspe][Nspe][Nlys][Nspe][Nspe][Nlys][Nspe][Nspe]-NH2; N-terminus assumed) | strongest anti-bacterial activity | 34 | active | 17 | 32 | 17 | 32 | 134 | 256 | 17 | 32 | –
2 | C[C@@H](c1ccccc1)N(CC(N)=O)C(=O)CN(C(=O)CN(CCCCN)C(=O)CN(C(=O)CN(C(=O)CN(CCCCN)C(=O)CN(C(=O)CN(C(=O)CN(CCCCNC(=N)N)C(=O)CN(C(=O)CN(C(=O)CNCCCCN)[C@@H](C)c1ccccc1)[C@@H](C)c1ccccc1)[C@@H](C)c1ccccc1)[C@@H](C)c1ccccc1)[C@@H](C)c1ccccc1)[C@@H](C)c1ccccc1)[C@@H](C)c1ccccc1 [Peptoid 3, (NLys-Nspe-Nspe)(NhArg-Nspe-Nspe)(NLys-Nspe-Nspe)2] (H-[Nlys][Nspe][Nspe][NhArg][Nspe][Nspe][Nlys][Nspe][Nspe][Nlys][Nspe][Nspe]-NH2; N-terminus assumed) | – | – | – | 17 | 32 | 17 | 32 | 134 | 256 | 17 | 32 | strongest anti-bacterial activity
